This is an account of results in patent US8598355B2, “Amide compound” (Astellas Pharma Inc., priority 2008, dated 2013).

As usually defined, the IC50 is the concentration at which inhibition is half-maximal. A high value points to weaker potency in that assay. As a reminder, the Ki is the dissociation constant of the complex between target and ligand, obtained from inhibition or displacement. The low end stands for tighter binding, the high end for weaker binding. One may read the melting point as the temperature of the solid-liquid transition.

One data set addresses T1, EP4 receptor (Homo sapiens, UniProt P35408).
T1 construct: endogenous in cells; host or cells: Jurkat cells (human leukemia T lymphoma), no transfection described
Kind of data set: EP4 receptor antagonistic activity by measurement of cAMP amount in human Jurkat cells (HTRF). Conditions: inhibition of cAMP, PGE2 100 nM. Format: cell-based. The protocol:
Evaluation Test of EP4 Receptor Antagonistic Activity by Measurement of cAMP Amount in Human Jurkat Cells
Jurkat cells (derived from human leukemia T lymphoma) were cultured with RPMI1640 (added with 10% fetal bovine serum) using a F75 flask. After proliferation to semiconfluency, indomethacin having a final concentration of 5 μM was added thereto, and the cells were further cultured for 18 hours. The cells were collected in a 15-mL Spitz tube, prepared to be 1×10^6 cells/mL using a Cell Banker (Mitsubishi Kagaku Iatron), and stored at −80° C. until used for assay. The cells were cultured in a CO2 incubator (37° C., 5% CO2).
A cAMP HiRange kit (Cisbio international) was used for cAMP measurement. A test compound, PGE2, and the cells were diluted and prepared with an assay buffer. The test compound was prepared to have a 3-fold concentration relative to the final concentration, PGE2 was prepared to be 300 nM, and the Jurkat cells frozen stored were prepared to be 1×10^6 cells/mL by thawing them at 37° C. To a 384-well U-bottom black microplate (Corning) were added the test compound, the cells, and PGE2 in this order in each in an amount of 5 μL, followed by shaking with a plate shaker and incubating at room temperature for 30 minutes. After incubation, 5 μL of a d2 reagent which had been diluted 0.6-fold with a lysis buffer was added to each well, followed by shaking with a plate shaker. Subsequently, 5 μL of an europium cryptate reagent which had been diluted 0.6-fold with a lysis buffer was added to each well, followed by shaking with a plate shaker and incubating at room temperature for 60 minutes under light shielding. After incubation, the fluorescence of the cryptate at 620 nm and the fluorescence of the d2 at 655 nm were measured using ARVO1420 (PerkinElmer). The cAMPs of 280, 70, 17.5, 4.38, 1.09, 0.27, and 0.068 nM were measured simultaneously for creating a standard curve. All measurements were performed in quadruplicate, and inhibitory rates were calculated by determining the cAMP amount of each test sample to the value obtained by subtracting the cAMP amount of the group without addition of PGE2 from the cAMP amount of the group with addition of PGE2 of 100 nM. IC50 values were calculated by a Logistic regression method.
In this connection, as the “assay buffer” and “lysis buffer” above, those as shown below were used:
Assay buffer; 1×HBSS (Hanks buffered salt solution, Nissui Pharmaceutical Co., Ltd.), 20 mM HEPES (pH 7.4, Nakarai Tesque), 0.5 mM IBMX (3-isobutyl-1-methylxanthine, WAKO), 0.02% CHAPS (Sigma), 0.1% Bovine serum albumin (Sigma), 2 μM Indomethacin (Sigma)
Lysis buffer; 50 mM NaPO4, 0.8 M KF, 1% Triton X-100, 0.2% Bovine serum albumin

Data set [1] deals with T2, rat EP4 receptor (Rattus norvegicus, UniProt P43114). Kind of data set: Rat EP4 receptor antagonistic activity by measurement of cAMP amount (rEP4 cAMP HTRF assay, CHO cells). Type of data set: cell-based. Further details: expressed in transfected cells. The settings on record: inhibition of cAMP, PGE2 100 nM, CHO cells expressing rat EP4. The protocol: Evaluation Test of Rat EP4 Receptor Antagonistic Activity by Measurement of cAMP Amount
CHO cells in which rat EP4 had been forced to be expressed were seeded in 96-well plates at 2×10^4 cells/100 μL and cultured overnight. The culture medium was replaced with 2 μM Indomethacin/0.1% BSA/alpha-MEM, and further, after 60 minutes, replaced with 1 mM IBMX/2 μM Indomethacin/0.1% BSA/alpha-MEM. After 10 minutes, the test compound was added, and further, after 10 minutes, PGE2 was added at a final concentration of 100 nM. The cells were cultured and reacted in a CO2 incubator (37° C., 5% CO2). After 30 minutes, the culture medium was removed and 100 μL/well of 0.2% Triton X-PBS was added for lysis of the cells. The cAMP contained in this cell lysis solution was measured with a cAMP HiRange kit (Cisbio international). The cell lysis solution was disperesed at 10 μL each into a 384-well U-bottom black microplate (Corning), and a d2 reagent and an europium cryptate reagent were added in this order to each well, each in an amount of 5 μL. It was incubated at room temperature for 60 minutes under light shielding. After incubation, the fluorescence of the cryptate at 620 nm and the fluorescence of the d2 at 655 nm were measured using ARVO1420 (PerkinElmer). The cAMPs of 280, 70, 17.5, 4.38, 1.09, 0.27, and 0.068 nM were measured simultaneously for creating a standard curve. The inhibitory rates were calculated by determining the cAMP amount of each test sample to the value obtained by subtracting the cAMP amount of the group without addition of PGE2 from the cAMP amount of the group with addition of PGE2 of 100 nM. IC50 values are calculated by a Logistic regression method.
(Time-resolved FRET reads energy transfer from a long-lived donor to a nearby acceptor.)

Data set [2] concerns the target T2, rat EP4 receptor. Kind of data set: Evaluation test of rat EP4 receptor affinity ([3H]PGE2 binding, membrane fraction of HEK293 cells expressing rat EP4). The settings on record: [3H]PGE2 0.3 nM. More on the design: expressed in transfected cells; host or cells: HEK293 cells, transient transfection with Lipofectamine 2000; membrane fraction. As for the experimental part: Evaluation Test of Rat EP4 Receptor Affinity
Cell Culturing and Transfection
Using a 10 cm collagen-coated dish (Asahi Glass), HEK293 cells were cultured in D-MEM culture medium, the culture medium was removed at a confluence (90 to 100% density state) and washed with a phosphate buffer saline (PBS), and then the cells were detached with N,N,N′,N′-tetrakis(carboxymethyl)ethylenediamine (EDTA). The number of the cells were counted and seeded on a 15 cm collagen-coated dish to a confluence of 70%. On the next day, to an Opti-MEM culture medium at 1.2 mL/dish was added Lipofectamine 2000 (Invitrogen) at 60 μL/dish, followed by leaving to stand at room temperature for 5 minutes. A plasmid in which rat EP4 (Sequence Number 1) had been inserted into a TA cloning site of pcDNA3.1-V5-His-topo was added thereto at 15 μg/dish. After leaving to stand at room temperature for 30 minutes, the resultant was added to the dish and cultured for 20 to 24 hours. The cell culture was carried out in a CO2 incubator (37° C., 5% CO2).
Preparation of Membrane Fraction
The culture medium was removed by suction, 10 mL of cooled PBS was added thereto per 15 cm dish, and the cells were scraped using a cell scraper (Sumitomo Bakelite). They were washed with cooled PBS (1,200 rpm, 4° C., 5 min), and then suspended in 6 mL of cooled 20 mM Tris-HCl (pH 7.4; Nakalai Tesque Inc., including 5 mM EDTA (Nakalai Tesque Inc.) per dish and the resultant was homogenized using a Polytron and the homogenate was centrifuged (26,000 rpm, 20 min, 4° C.). The obtained precipitate was resuspended in cooled 20 mM Tris-HCl and homogenized again using a Polytron, and the homogenate was centrifuged (26,000 rpm, 20 min, 4° C.). The obtained precipitate was resuspended in 50 mM HEPES (pH 7.5; Dojindo Laboratories) at 1 mL per dish, homogenized using a Polytron, and freeze-stored at −80° C. as a membrane fraction. At this time, a part thereof was used for the measurement of the protein concentration. Measurement of the protein concentration was carried out in duplicate using a Bio-Rad Protein assay kit (Bio-Rad Laboratories) in accordance with the appended standard Protocol.
[^3H]PGE2 50 μL (final concentration 0.3 nM; Perkin Elmer), 100 μL (20 μg/well) of a membrane fraction prepared from the rat EP4 expression cell and 50 μL of a test compound were mixed in a 96-well microplate (Sumitomo Bakelite), incubated at room temperature for 1 hour, filtered by suction on a UniFilter-96 GF/B (Perkin Elmer) using a FilterMate Harvester (Perkin Elmer), and then washed three times with 300 μL/well of a cooled assay buffer. Dilution of [^3H]PGE2 and the membrane fraction was carried out using an assay buffer (50 mM HEPES, 10 mM MgCl2), and dilution of the test compound and the unlabeled PGE2 was carried out using DMSO and an assay buffer. Further, in the case of the addition of a human serum albumin (HSA), dilution was carried out using an assay buffer containing 4% HSA (final concentration 1%; Sigma). The UniFilter-96 GF/B was treated preliminarily by washing twice with 200 μL/well of a cooled assay buffer. The UniFilter-96 GF/B after filtration was dried in a dryer overnight, 50 μL/well of MicroScint20 (Perkin Elmer) was added thereto, and then the radioactivity was measured using a TopCount (Perkin Elmer). For measurement of the non-specific binding, an unlabeled PGE2 (final concentration 1 μM; Cayman) was added. All of the measurements were carried out in duplicate, and the specific binding amount was determined by subtracting the non-specific binding amount from the total binding amount. The Ki value was calculated according to the general methods.
In the connection, Ex represents the below-described Example Compound number.

The target of data set [3] is T2, rat EP4 receptor. Kind of data set: In vivo rat EP4 receptor antagonistic activity (ONO-4819/LPS, plasma TNF-α). The settings on record: SD rat, oral. The protocol: Evaluation Test of In Vivo Rat EP4 Receptor Antagonistic Activity
A solution of PEG 400:20% Tween 80:aqueous 1 M NaHCO3 solution=1:4:5 of a test compound was orally administered to a SD rat (male, 6-week old) under non-fasting conditions, and after 1 hour, ONO-4819 was administered subcutaneously to the back of the rat. After 30 minutes, Lipopolysaccharide (LPS, 0.01 mg/kg) was administered to the tail vein without anesthesia, and after 60 minutes, 0.5 mL of heparin blood was collected from the fundus under ether anesthesia. The blood sample was centrifuged (3000 rpm, 10 minutes) to separate the plasma, and then the TNF-α concentration in the rat plasma was measured by an ELISA kit (see Hepatology Research Journal, vol. 21, 252-260, 2001). A value obtained by subtracting the TNF-α concentration of the group treated with ONO-4819 from the TNF-α concentration of the group not treated with ONO-4819 was taken as 100%, and the inhibitory rates to the value were calculated for the test compounds.
In this connection, Ex represents the below-described Example compound number.

T2 sequence (P43114 whole entry): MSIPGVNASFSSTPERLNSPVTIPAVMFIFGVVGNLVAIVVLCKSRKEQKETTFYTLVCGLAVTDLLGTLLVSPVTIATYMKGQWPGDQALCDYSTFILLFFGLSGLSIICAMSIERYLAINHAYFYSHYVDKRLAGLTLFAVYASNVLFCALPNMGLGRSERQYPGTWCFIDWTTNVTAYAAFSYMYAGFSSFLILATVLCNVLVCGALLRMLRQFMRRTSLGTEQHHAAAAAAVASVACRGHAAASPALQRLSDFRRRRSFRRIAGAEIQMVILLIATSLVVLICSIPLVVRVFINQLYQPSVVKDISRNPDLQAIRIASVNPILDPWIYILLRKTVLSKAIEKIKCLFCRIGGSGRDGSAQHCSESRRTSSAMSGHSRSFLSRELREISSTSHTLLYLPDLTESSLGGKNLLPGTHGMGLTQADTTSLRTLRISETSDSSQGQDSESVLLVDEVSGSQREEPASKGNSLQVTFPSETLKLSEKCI
T1 sequence (P35408 whole entry): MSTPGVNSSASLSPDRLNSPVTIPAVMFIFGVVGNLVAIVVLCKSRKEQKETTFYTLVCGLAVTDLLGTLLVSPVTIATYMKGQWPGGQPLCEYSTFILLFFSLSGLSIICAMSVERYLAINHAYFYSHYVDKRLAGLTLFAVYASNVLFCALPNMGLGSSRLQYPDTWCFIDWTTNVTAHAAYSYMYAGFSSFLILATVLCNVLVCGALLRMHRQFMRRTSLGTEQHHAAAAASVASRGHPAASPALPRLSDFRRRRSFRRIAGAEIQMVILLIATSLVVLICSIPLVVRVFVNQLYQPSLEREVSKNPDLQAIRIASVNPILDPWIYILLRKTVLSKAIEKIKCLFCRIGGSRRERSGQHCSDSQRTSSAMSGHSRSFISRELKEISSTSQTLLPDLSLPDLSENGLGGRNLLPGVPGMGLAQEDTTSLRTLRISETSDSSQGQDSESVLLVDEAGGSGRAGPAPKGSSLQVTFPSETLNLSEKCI

Regarding `C[C@H](NC(=O)c1cccc2ccn(Cc3ccc(-c4ccccc4)cc3)c12)c1ccc(C(=O)O)cc1` [Example 3, 4-[(1S)-1-({[1-(biphenyl-4-ylmethyl)-1H-indol-7-yl]carbonyl}amino)ethyl]benzoic acid], the results for the concentration for half-maximal inhibition (IC50) against EP4 receptor and at rat EP4 receptor [1] were 0.11 nM and 0.99 nM, respectively. This compound also showed a Ki on rat EP4 receptor [2] of 0.76 nM.
With `O=C(NC[C@H]1CC[C@H](C(=O)O)CC1)c1cc(C(F)(F)F)cc2ccn(Cc3ccc(Cl)cn3)c12` [Example 229], the melting point was 224 to 226 °C (dec.). At rat EP4 receptor [2], this compound had a Ki of 3.9 nM.
For `Cc1cc(C(=O)NC[C@H]2CC[C@H](C(=O)O)CC2)c2c(ccn2Cc2cc3ccccc3cn2)c1` [Example 224], the melting point is 251 to 252 °C (dec.). For the same compound, the “Inhibitory rate (%)” value on rat EP4 receptor [3] (dose 0.003 mg/kg) amounted to 71%. This compound also registered a Ki at rat EP4 receptor [2] of 2.1 nM.
`O=C(O)c1ccc(CNC(=O)c2cc(C(F)(F)F)cc3ccn(CCOc4ccc(Cl)cc4)c23)cc1` [Example 215] displayed a melting point of 208 to 210 °C. The “Inhibitory rate (%)” value at rat EP4 receptor [3] (dose 0.01 mg/kg) is given as 71%. At rat EP4 receptor [2], this compound yielded an inhibitory constant (Ki) of 2.6 nM.
For the compound `O=C(NC[C@H]1CC[C@H](C(=O)O)CC1)c1cc(Cl)cc2ccn(Cc3cc4ccccc4o3)c12` [Example 227], the melting point fell in the range of 228 to 230 °C. On rat EP4 receptor [2], this compound had a Ki of 1.7 nM.
Take `Cc1cc(C(=O)NC[C@H]2CC[C@H](C(=O)O)CC2)c2c(ccn2Cc2ccc3ccccc3n2)c1` [Example 96]: the melting point is 244 to 245 °C (dec.). Also, the “Inhibitory rate (%)” value on rat EP4 receptor [3] (dose 0.01 mg/kg) came to 57%. At rat EP4 receptor [2], this compound showed an inhibition constant (Ki) of 1.7 nM.
In the case of `O=C(NC[C@H]1CC[C@H](C(=O)O)CC1)c1cc(C(F)(F)F)cc2ccn(Cc3cc4cc(Cl)ccc4o3)c12` [Example 231], the melting point fell in the range of 211 to 213 °C. The same compound gave a Ki on rat EP4 receptor [2] of 1.4 nM.
